Laboratory results reported in US11413278B2, “Compounds and methods for promoting stress resistance” (priority 2015, dated 2022).
Like-named read-outs stand apart in the source and are kept apart here.

How the values were obtained:
FOXO3 = FOXO3 siRNA knockdown: dependency for H2O2-resistance; type: cell-based, human; conditions: for FOXO3-dependency for H2O2-resistance (experiment 3): with & without H2O2, FOXO3 knockdown in WI-38 cells; for Requirement of FOXO3 to promote H2O2-resistance: FOXO3 siRNA, at least 2 of 3 independent experiments
NRF2 = assay: qPCR analysis of NRF2-regulated genes; type: cell-based, human; conditions: for fold induction at 10 µM: Homo sapiens; for Summary of effects on NRF2-regulated genes: HMOX1, second run: run RP42 (Gr-1D) / RP52 (Gr-4D); for Potential NRF2 Activation (>=2 target genes induced, by >=1.5-fold): Assay 13(p)
Outline: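 WI-38 cells treated with compound at 10 μM for 24 hrs, then processed by Cells-to-Ct for RNA isolation, RT and qPCR of NRF2-regulated genes (HMOX1, NQO1, GCLC, GSTM1). Expression normalized to B2M, PPIA and GAPDH; siRNA knockdown of FOXO3 or NRF2 (10 nM) preceded treatment in some runs.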

WI-38 cells = assay: Long-term effects on cell viability (5 days, ATP; morphology, PI imaging); type: cell-based; conditions: 10 μM; for Luminescence signal for ATP measurement, day-1 Average / Luminescence signal for ATP measurement, day-2 Average / Luminescence signal for ATP measurement, day-3 Average / Luminescence signal for ATP measurement, day-4 Average / Luminescence signal for ATP measurement, day-5 Average / viability at 10 µM: Batch 1; for Luminescence signal for ATP measurement, day-1 Average / Luminescence signal for ATP measurement, day-2 Average / Luminescence signal for ATP measurement, day-3 Average / Luminescence signal for ATP measurement, day-4 Average / Luminescence signal for ATP measurement, day-5 Average: n = 6, day-0 luminescence = 320956 ± 24708; for viability at 10 µM: Homo sapiens, WI-38, 120 h, DMSO ctrl = 100.0%, read-out: ATP luminescence by day-5 normalized; for Luminescence signal for ATP measurement, day-5 Average / viability at 10 µM: day-5;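 as to Luminescence signal for ATP measurement, day-2 Average: compounds at 10 µM with ATP read daily over 5 days of treatment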;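 as to Luminescence signal for ATP measurement, day-3 Average: compounds at 10 µM with ATP read daily over 5 days of treatment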;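 as to Luminescence signal for ATP measurement, day-4 Average: compounds at 10 µM with ATP read daily over 5 days of treatment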;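 as to Luminescence signal for ATP measurement, day-5 Average: compounds at 10 µM with ATP read daily over 5 days of treatment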
[1] = 24 h, Assay 12(o), at 10 uM, qPCR, read-out: Induction of NRF2-regulated genes: NQO1 normalized fold-change
[2] = rounded fold change, WI-38 cells, 10 μM, 24 hrs (RP11 for Gr-1D, RP29 for Gr-4D), read-out: Summary of effects on NRF2-regulated genes: HMOX1
[3] = rounded fold change, WI-38 cells, 10 μM, 24 hrs (RP29 for Gr-4D), read-out: Summary of effects on NRF2-regulated genes: NQO1
[4] = 10 μM, 24 hrs, WI-38 cells, qPCR, normalized to B2M, n = 4, read-out: HMOX1 expression, normalized fold change (NRF2-regulated gene)
[5] = 10 μM, 24 hrs, WI-38 cells, qPCR, normalized to B2M, n = 4, read-out: NQO1 expression, normalized fold change (NRF2-regulated gene)
[6] = WI-38 cells, 10 μM, 24 hrs, n=4, qPCR normalized by B2M, read-out: GCLC Normalized fold change
[7] = WI-38 cells, 10 μM, 24 hrs, n=4, qPCR normalized by B2M, read-out: GSTM1 Normalized fold change
[8] = WI-38 cells, 10 μM, 24 hrs, n=4, qPCR normalized by B2M, read-out: HMOX1 Normalized fold change
[9] = WI-38 cells, 10 μM, 24 hrs, n=4, qPCR normalized by B2M, read-out: NQO1 Normalized fold change
[10] = 10 uM, YES = resistance reduced by at least 50%, partial = 25% to 50%
[11] = 24 h, Assay 12(o), at 10 uM, qPCR, read-out: Induction of NRF2-regulated genes: GSTM1 normalized fold-change
[12] = 24 h, Assay 12(o), at 10 uM, qPCR, read-out: Induction of NRF2-regulated genes: HMOX1 normalized fold-change
[13] = rounded fold change, WI-38 cells, 10 μM, 24 hrs (RP29 for Gr-4D), read-out: Summary of effects on NRF2-regulated genes: GSTM1
[14] = 10 μM, 24 hrs, WI-38, read-out: Expression of at least two NRF2 target genes
[15] = 10 μM, 24 hrs, WI-38 cells, qPCR, normalized to B2M, n = 4, read-out: GSTM1 expression, normalized fold change (NRF2-regulated gene)

| Compound | I = FOXO3-dependency for H2O2-resistance (FOXO3; score) | I = FOXO3-dependency for H2O2-resistance (FOXO3; summary score) | F = Potential NRF2 Activation (NRF2; 2-point score) | fold induction at 10 µM (NRF2; [1]) | fold induction at 10 µM (NRF2; [2]) | fold induction at 10 µM (NRF2; [3]) | fold induction at 10 µM (NRF2; [4]) | fold induction at 10 µM (NRF2; [5]) | fold induction at 10 µM (NRF2; [6]) | fold induction at 10 µM (NRF2; [7]) | fold induction at 10 µM (NRF2; [8]) | fold induction at 10 µM (NRF2; [9]) | F = Potential NRF2 Activation (NRF2; summary score) | O = Potential toxicity (WI-38 cells; human, 5 days) | Q = Potential toxicity (WI-38 cells; human, 5 days) | Luminescence signal for ATP measurement, day-1 Average (WI-38 cells) | Luminescence signal for ATP measurement, day-2 Average (WI-38 cells) | Luminescence signal for ATP measurement, day-3 Average (WI-38 cells) | Luminescence signal for ATP measurement, day-4 Average (WI-38 cells) | Luminescence signal for ATP measurement, day-5 Average (WI-38 cells) | also measured |
| --- | --- | --- | --- | --- | --- | --- | --- | --- | --- | --- | --- | --- | --- | --- | --- | --- | --- | --- | --- | --- | --- |
| O=[N+]([O-])c1ccccc1S(=O)(=O)Nc1cccc2cccnc12 [Gr-3A] | 0 | 0 | 0 | 1.3 | 1.41 | 1.37 | 1.41 | 1.37 | 1.01 | 1.35 | 1.41 | 1.37 | 0 | 0 | 0 |  |  |  |  |  | Reduction of ATP content after 5 days of continuous incubation (WI-38 cells; human, 5 days): more than 40% |
| O=C(Nc1cccc(Cl)c1)c1ccc([N+](=O)[O-])o1 [Gr-1D] | 0 | 0 | 0 |  | 4.68 |  | 4.68 |  | 1.08 | 1.17 | 4.68 | 0.878 | 0 | 1 | 0 | 396843 | 497248 | 542643 | 797305 | 865168 | Summary of effects on NRF2-regulated genes: HMOX1, second run (NRF2; WI-38 cells, 10 μM): 5.86,; Summary of effects on NRF2-regulated genes: GCLC, second run (NRF2; run RP42 (Gr-1D), WI-38 cells, 10 μM): 0.79,; viability at 10 µM (WI-38 cells): 84.3% |
| O=C(/C(=C/c1ccc(Cl)cc1)c1nc2ccccc2[nH]1)c1ccccc1 [Gr-4D] | 0 | 0 | 2 | 2.56 | 4.55 | 2.56 | 4.55 | 2.56 | 0.863 | 1.52 | 4.55 | 2.56 | 2 | 0 | 0 |  |  |  |  |  | FOXO3-dependency for H2O2-resistance, at 10 uM (experiment 3) - with & without H2O2 (FOXO3; 10 uM): Partial; FOXO3-dependency for H2O2-resistance (experiment 3) (FOXO3; [10]): Partial; Requirement of FOXO3 to promote H2O2-resistance (FOXO3): not FOXO3; Induction of at least two NRF2-regulated genes (HMOX1, NQO1, GCLC, GSTM1) (NRF2; 10 μM, 24 hrs, WI-38): could induce both FOXO3- and NRF2-regulated genes; Potential NRF2 Activation (>=2 target genes induced, by >=1.5-fold) (NRF2): YES; fold induction at 10 µM (NRF2; [11]): 1.52; fold induction at 10 µM (NRF2; [12]): 4.55; fold induction at 10 µM (NRF2; [13]): 1.52; fold induction at 10 µM (NRF2; [14]): > 1.5; fold induction at 10 µM (NRF2; [15]): 1.52; Summary of effects on NRF2-regulated genes: HMOX1, second run (NRF2; WI-38 cells, 10 μM): 2.40,; Summary of effects on NRF2-regulated genes: NQO1, second run (NRF2; run RP52 (Gr-4D), WI-38 cells, 10 μM): 1.49, |
| CCCN1C/C(=C\c2ccc(F)cc2)C(=O)/C(=C/c2ccc(F)cc2)C1 [O15] | 1 | 1 | 2 | 1.6 | 48.7 | 1.6 | 48.7 | 1.6 | 1.23 | 0.995 | 48.7 | 1.6 | 2 | 1 | 0 | 426828 | 601153 | 634740 | 904970 | 761533 | FOXO3-dependency for H2O2-resistance, at 10 uM - with H2O2, 1st experiment (FOXO3; 10 uM, experiment 1 (1st), with H2O2): 1st, YES;; FOXO3-dependency for H2O2-resistance, at 10 uM (experiment 3) - with & without H2O2 (FOXO3; 10 uM): YES; FOXO3-dependency for H2O2-resistance (experiment 3) (FOXO3; [10]): YES; FOXO3-dependency for H2O2-resistance, 1st experiment (FOXO3; 10 uM, with H2O2, FOXO3 knockdown in WI-38 cells, YES = resistance reduced by at least 50%, partial = 25% to 50%): YES;; Assay 16: FOXO3-dependency for H2O2-resistance (FOXO3; 10 uM, YES/NO): YES; Requirement of FOXO3 to promote H2O2-resistance (FOXO3): required FOXO3; Potential NRF2 Activation (>=2 target genes induced, by >=1.5-fold) (NRF2): YES; fold induction at 10 µM (NRF2; [12]): 48.7; fold induction at 10 µM (NRF2; [14]): > 1.5; viability at 10 µM (WI-38 cells): 74.2% |
| COc1cccc(/C=C2\CN(C)C/C(=C\c3cccc(OC)c3OC)C2=O)c1OC [O23] | 0 | 0 | 0 | 0.48 | 12.9 | 0.48 | 12.9 | 0.48 | 0.668 | 0.595 | 12.9 | 0.477 | 0 | 1 | 1 | 329880 | 149226 | 52831 | 53125 | 52771 | FOXO3-dependency for H2O2-resistance, at 10 uM (experiment 3) - with & without H2O2 (FOXO3; 10 uM): YES; FOXO3-dependency for H2O2-resistance (experiment 3) (FOXO3; [10]): YES; fold induction at 10 µM (NRF2; 24 h, Assay 12(o), at 10 uM, qPCR, read-out: Induction of NRF2-regulated genes: GCLC normalized fold-change): 0.67; fold induction at 10 µM (NRF2; [11]): 0.6; fold induction at 10 µM (NRF2; [12]): 12.9; fold induction at 10 µM (NRF2; [13]): 0.6; fold induction at 10 µM (NRF2; rounded fold change, WI-38 cells, 10 μM, 24 hrs, read-out: Summary of effects on NRF2-regulated genes: GCLC): 0.67; fold induction at 10 µM (NRF2; 10 μM, 24 hrs, WI-38 cells, qPCR, normalized to B2M, n = 4, read-out: GCLC expression, normalized fold change (NRF2-regulated gene)): 0.67; fold induction at 10 µM (NRF2; [15]): 0.6; viability at 10 µM (WI-38 cells): 5.1% |
